Laboratory results as given in BindingDB's records for PubMed 9686407 (Sri International, 1998).

Legend:
Mu-type opioid receptor = Mu-type opioid receptor (Cavia porcellus, UniProt P97266)
[1] = biological target: T1, 5-hydroxytryptamine receptor 1A (Homo sapiens, UniProt P08908)
T1 sequence (P08908 whole entry): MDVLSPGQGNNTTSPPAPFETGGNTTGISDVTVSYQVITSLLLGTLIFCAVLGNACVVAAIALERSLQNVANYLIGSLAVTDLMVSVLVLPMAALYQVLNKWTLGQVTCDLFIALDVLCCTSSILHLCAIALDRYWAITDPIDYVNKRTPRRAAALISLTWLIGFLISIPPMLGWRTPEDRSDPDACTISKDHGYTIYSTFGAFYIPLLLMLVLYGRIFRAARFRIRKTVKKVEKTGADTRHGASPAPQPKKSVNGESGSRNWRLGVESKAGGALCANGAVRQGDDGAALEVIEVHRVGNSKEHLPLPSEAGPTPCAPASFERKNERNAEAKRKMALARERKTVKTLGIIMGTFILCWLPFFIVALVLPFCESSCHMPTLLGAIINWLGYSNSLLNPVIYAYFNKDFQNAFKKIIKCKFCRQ

[2] = biological target: 5-hydroxytryptamine receptor 2A (Rattus norvegicus, UniProt P14842)
Chain of 5-hydroxytryptamine receptor 2A (P14842 whole entry): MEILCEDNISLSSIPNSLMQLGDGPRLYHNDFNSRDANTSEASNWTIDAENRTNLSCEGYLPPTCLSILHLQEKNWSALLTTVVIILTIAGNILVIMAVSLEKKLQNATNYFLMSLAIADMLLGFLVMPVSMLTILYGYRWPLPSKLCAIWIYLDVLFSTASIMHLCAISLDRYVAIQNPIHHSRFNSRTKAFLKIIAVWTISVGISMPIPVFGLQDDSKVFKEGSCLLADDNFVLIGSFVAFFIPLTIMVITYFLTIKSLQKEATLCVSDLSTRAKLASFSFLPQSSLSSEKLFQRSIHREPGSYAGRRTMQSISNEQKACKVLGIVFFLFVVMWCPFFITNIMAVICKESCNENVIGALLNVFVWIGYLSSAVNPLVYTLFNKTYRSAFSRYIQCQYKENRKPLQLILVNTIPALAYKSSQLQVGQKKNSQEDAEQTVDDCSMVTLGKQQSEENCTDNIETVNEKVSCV

D(1A) dopamine receptor = D(1A) dopamine receptor (Homo sapiens, UniProt P21728)
Chain of D(1A) dopamine receptor (P21728 whole entry): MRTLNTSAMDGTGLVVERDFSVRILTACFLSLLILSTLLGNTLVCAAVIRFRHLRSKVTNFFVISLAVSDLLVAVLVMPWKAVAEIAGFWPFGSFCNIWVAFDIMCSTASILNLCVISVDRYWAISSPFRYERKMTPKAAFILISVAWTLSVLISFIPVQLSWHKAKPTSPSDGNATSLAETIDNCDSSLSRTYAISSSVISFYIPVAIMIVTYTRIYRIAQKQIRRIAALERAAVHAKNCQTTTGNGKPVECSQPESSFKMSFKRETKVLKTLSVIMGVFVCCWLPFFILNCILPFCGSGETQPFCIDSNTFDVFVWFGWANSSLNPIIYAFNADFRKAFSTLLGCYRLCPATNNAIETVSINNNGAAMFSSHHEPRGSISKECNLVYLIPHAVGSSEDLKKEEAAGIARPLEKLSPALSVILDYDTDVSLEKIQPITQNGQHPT

[3] = biological target: T2, 5-hydroxytryptamine receptor 3A (Mus musculus, UniProt P23979)
T2 sequence (P23979 whole entry): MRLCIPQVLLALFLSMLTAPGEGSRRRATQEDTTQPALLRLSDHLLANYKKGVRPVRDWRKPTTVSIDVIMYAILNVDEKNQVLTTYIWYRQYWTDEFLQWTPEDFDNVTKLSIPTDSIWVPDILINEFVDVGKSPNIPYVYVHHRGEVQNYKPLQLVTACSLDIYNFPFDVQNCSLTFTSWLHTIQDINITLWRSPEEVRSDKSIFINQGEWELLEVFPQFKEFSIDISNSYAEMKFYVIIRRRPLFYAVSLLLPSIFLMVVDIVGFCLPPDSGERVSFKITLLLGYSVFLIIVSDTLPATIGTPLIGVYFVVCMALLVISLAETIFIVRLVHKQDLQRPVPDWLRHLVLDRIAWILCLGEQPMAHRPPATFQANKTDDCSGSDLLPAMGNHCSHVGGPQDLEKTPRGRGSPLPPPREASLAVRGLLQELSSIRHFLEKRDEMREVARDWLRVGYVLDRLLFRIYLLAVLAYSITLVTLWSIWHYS

[4] = biological target: T3, 5-hydroxytryptamine receptor 2C (Rattus norvegicus, UniProt P08909)
T3 sequence (P08909 whole entry): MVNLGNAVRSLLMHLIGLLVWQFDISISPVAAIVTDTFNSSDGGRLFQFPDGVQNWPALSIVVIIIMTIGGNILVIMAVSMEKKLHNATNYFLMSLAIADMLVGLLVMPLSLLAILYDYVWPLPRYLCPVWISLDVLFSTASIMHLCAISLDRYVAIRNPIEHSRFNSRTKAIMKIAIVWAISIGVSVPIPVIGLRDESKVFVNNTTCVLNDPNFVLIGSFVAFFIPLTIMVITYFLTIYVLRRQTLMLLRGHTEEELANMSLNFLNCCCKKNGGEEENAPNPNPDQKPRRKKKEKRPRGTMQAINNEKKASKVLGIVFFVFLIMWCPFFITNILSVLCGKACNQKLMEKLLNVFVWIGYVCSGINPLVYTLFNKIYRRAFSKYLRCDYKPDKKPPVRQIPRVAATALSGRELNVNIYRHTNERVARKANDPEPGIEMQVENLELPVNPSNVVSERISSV

Chain of Mu-type opioid receptor (P97266 whole entry): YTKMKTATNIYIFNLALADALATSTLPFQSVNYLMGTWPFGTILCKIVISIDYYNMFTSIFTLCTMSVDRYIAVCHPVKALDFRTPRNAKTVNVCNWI

For `Oc1ccc2c3c1O[C@H]1c4[nH]c5c(c4C[C@@]4(O)[C@@H](C2)N(CC2CC2)CC[C@]314)C[C@@]1(O)[C@H]2Cc3ccc(O)c4c3[C@@]1(CCN2CC1CC1)[C@H]5O4` [C18130], the Ki (Mu-type opioid receptor) was 0.0083 µM.
`CCCN1CCCC(c2cccc(O)c2)C1` (stereo unspecified) [CAS_85976-54-1] showed a Ki [1] of 4.17 µM, a Ki [2] of 5.99 µM and a Ki (D(1A) dopamine receptor) of over 10 µM. It also gave a Ki [3] of over 10 µM and a Ki [4] of over 10 µM.
Work on `CN1CC[C@]23c4c5ccc(O)c4O[C@H]2[C@@H](O)CCC3[C@H]1C5` (stereo partly specified) [DIHYDROMORPHINE] yielded a Ki (Mu-type opioid receptor) of 0.0008 µM.
`COC(=O)[C@H]1[C@H]2C[C@@H]3c4[nH]c5cc(OC)ccc5c4CCN3C[C@H]2C[C@@H](OC(=O)c2cc(OC)c(OC)c(OC)c2)[C@@H]1OC` [Apoplon] showed a Ki [1] of 1.83 µM, a Ki [2] of 3.06 µM and a Ki (D(1A) dopamine receptor) of 3.85 µM. For the same compound, the Ki [3] was over 10 µM and the Ki [4] was 3.1 µM.
With `NC(=O)N1c2ccccc2C=Cc2ccccc21` [5H-dibenzo[b,f]azepine-5-carboxamide] the Ki [1] was over 10 µM, the Ki [2] was over 10 µM and the Ki (D(1A) dopamine receptor) was over 10 µM. For the same compound, the Ki [3] was over 10 µM and the Ki [4] was over 10 µM.
In the case of `CN[C@@H](C)Cc1ccccc1` [METHAMPHETAMINE (+)], the Ki [1] is reported as over 10 µM, the Ki [2] is reported as over 10 µM and the Ki (D(1A) dopamine receptor) is reported as over 10 µM. The Ki [3] was over 10 µM and the Ki [4] was over 10 µM.
With `COC(=O)[C@H]1[C@@H](OC(=O)c2ccccc2)C[C@@H]2CC[C@H]1N2C` [Cocaine (-)] the Ki [1] was over 10 µM, the Ki [2] was over 10 µM and the Ki (D(1A) dopamine receptor) was over 10 µM. The Ki [3] was over 10 µM and the Ki [4] was over 10 µM.
For `CCC12CCN(CC3(O)CC3)C(Cc3ccc(O)cc31)C2(C)C` (stereo unspecified), the Ki (Mu-type opioid receptor) was 0.0001 µM.
Work on `CCc1cc(Cl)c(OC)c(C(=O)NC[C@@H]2CCCN2CC)c1O` [3-Chloro-5-ethyl-N-((S)-1-ethyl-pyrrolidin-2-ylmethyl)-6-hydroxy-2-methoxy-benzamide] yielded a Ki [1] of 1.79 µM, a Ki [2] of 0.705 µM and a Ki (D(1A) dopamine receptor) of over 10 µM. For the same compound, the Ki [3] was over 10 µM and the Ki [4] was over 10 µM.
Work on `C#CCN(C)[C@H](C)Cc1ccccc1` [US8633208, Deprenyl] yielded a Ki [1] of over 10 µM, a Ki [2] of 5.64 µM and a Ki (D(1A) dopamine receptor) of over 10 µM. The Ki [3] was over 10 µM and the Ki [4] was over 10 µM.
Work on `Fc1ccc(C(OCCN2CCN(CCCc3ccccc3)CC2)c2ccc(F)cc2)cc1` [Vanoxerine] yielded a Ki [1] of 4.68 µM, a Ki [2] of 0.161 µM and a Ki (D(1A) dopamine receptor) of over 10 µM. The Ki [3] was over 10 µM and the Ki [4] was over 10 µM.
In the case of `CC[C@@H]1CC2C[C@@H]3c4[nH]c5ccc(OC)cc5c4CCN(C2)C13` [IBOGAINE], the Ki [1] is reported as over 10 µM, the Ki [2] is reported as over 10 µM and the Ki (D(1A) dopamine receptor) is reported as over 10 µM. The Ki [3] was over 10 µM and the Ki [4] was over 10 µM.
`CC[C@H](C)[C@H](NC(=O)[C@H](CCCNC(=N)N)NC(=O)[C@H](CCCNC(=N)N)NC(=O)[C@H](CC(C)C)NC(=O)[C@H](Cc1ccccc1)NC(=O)CNC(=O)CNC(=O)[C@@H](N)Cc1ccc(O)cc1)C(=O)N[C@@H](CCCNC(=N)N)C(=O)N1CCC[C@H]1C(=O)N[C@@H](CCCCN)C(=O)N[C@@H](CC(C)C)C(=O)N[C@@H](CCCCN)C(=O)O` [Dynorphin A (1-13)] gave a Ki (Mu-type opioid receptor) of 0.0033 µM.
In the case of `CC(C)C[C@H](NC(=O)[C@H](Cc1ccccc1)NC(=O)CNC(=O)CNC(=O)[C@@H](N)Cc1ccc(O)cc1)C(=O)N[C@@H](CCCN=C(N)N)C(=O)N[C@@H](CCCN=C(N)N)C(=O)N[C@@H](CCC(N)=O)C(=O)N[C@@H](Cc1ccccc1)C(=O)N[C@@H](CCCCN)C(=O)N[C@H](C(=O)N[C@H](C(=O)N[C@H](C(=O)O)[C@@H](C)O)C(C)C)C(C)C` [Dynorphin B (1-13)], the Ki (Mu-type opioid receptor) is reported as 0.0055 µM.
With `CN1CC(C(=O)N[C@]2(C)O[C@@]3(O)C4CCCN4C(=O)[C@H](Cc4ccccc4)N3C2=O)CC2c3cccc4[nH]cc(c34)CC21` (stereo partly drawn) [7-Methyl-4,6,6a,7,8,9,10,10a-octahydro-indolo[4,3-fg]quinoline-9-carboxylic acid ((2R,5S,10bS)-5-benzyl-10b-hydroxy-2-methyl-3,6-dioxo-octahydro-oxazolo[3,2-a]pyrrolo[2,1-c]pyrazin-2-yl)-amide] the Ki [1] was 0.0015 µM, the Ki [2] was 0.038 µM and the Ki (D(1A) dopamine receptor) was 2.78 µM. The Ki [3] was over 10 µM and the Ki [4] was 0.298 µM.
For `CC[C@@]12CCN(CC3CC3)C(C(=O)c3ccc(O)cc31)[C@@H]2C` [EKC], the Ki (Mu-type opioid receptor) was 0.0004 µM.
